Data reported in patent publication US4898940A (priority 1989, dated 1990).
In brackets after ≈: the same amount, converted by molar mass.

Columns and labels:
[1] = test system: Blastomyces dermaditis; assay: MIC, serial agar dilution (Sabouraud dextrose agar); assay type: cell-based; settings: Blastomyces dermaditis IFO 8144
Source text: (§1) Nutrient agar (Eiken) was used for bacteria and Sabouraud dextrose agar (Difco) for fungi. The inoculum size was adjusted to 10^4 CFU/ml for bacteria and 10^5 -10^7 CFU/ml for fungi.

[2] = test system: Cryptococcus neoformans; assay: as above; assay type: cell-based
Source text: as §1

[3] = test system: Aspergillus flavus; assay: as above; assay type: cell-based; settings: Aspergillus flavus FA 21436
Source text: as §1

[4] = test system: Fusarium moniliforme; assay: as above; assay type: cell-based; settings: Fusarium moniliforme A 2284
Source text: as §1

[5] = test system: Sporothrix schenckii; assay: as above; assay type: cell-based; settings: Sporothrix schenckii IFO 8158
Source text: as §1

[6] = test system: Mucor spinosus; assay: as above; assay type: cell-based; settings: Mucor spinosus IFO 5317
Source text: as §1

[7] = test system: Candida albicans; assay: as above; assay type: cell-based
Source text: as §1

[8] = test system: Petriellidium boydii; assay: as above; assay type: cell-based; settings: Petriellidium boydii IFO 8073
Source text: as §1

[9] = test system: Trichophyton mentagrophytes; assay: as above; assay type: cell-based
Source text: as §1

[10] = test system: Aspergillus fumigatus; assay: as above; assay type: cell-based
Source text: as §1

[11] = test system: Lymphocytic leukemia P388; assay: Antitumor activity against P388 leukemia in mice; assay type: in vivo, CDF1 and BDF1 mice; settings: for T/C % of MST: P388 leukemia; for antitumor activity against P388 leukemia (in words): ip
Method: (§2) Lymphocytic leukemia P388 (CDF1 and BDF1 mice) and lymphoid leukemia L1210 (BDF1 mice) were inoculated by intraperitoneal injection of 0.8 ml diluted ascitic fluid containing 10^6 and 10^5 cells per mouse, respectively. Melanotic melanoma B16 (BDF1 mice) were implanted 0.5 ml of a 10% tumor brei intraperitoneally. Test materials were dissolved in 0.9% saline containing 10% dimethyl sulfoxide and graded doses of them were administered to mice intraperitoneally 24 hours after tumor implantation. Either olivomycin (NSC 38270) or mitomycin C was comparatively tested as a reference compound in the experiments.
Values for percentage ratios of 125 and above indicate significant antitumor effect.

[12] = test system: pathogenic fungi such as Candida albicans, Cryptococcus neoformans, Aspergillus fumigatus, Trichlophyton mentagrophytes and Mucor spinosus; assay: In vitro antifungal activity; assay type: cell-based; settings: clinically important pathogenic fungi
Source text: as §1

[13] = test system: gram-positive and gram-negative bacteria; assay: In vitro antibacterial activity; assay type: cell-based
Source text: as §1

[14] = Solubility in solvents; assay type: physicochemical
[15] = test system: Bacillus subtilis; assay: MIC, serial agar dilution (nutrient agar); assay type: cell-based; settings: Bacillus subtilis PCI-219
Source text: as §1

[16] = test system: Micrococcus luteus; assay: MIC, serial agar dilution (nutrient agar); assay type: cell-based; settings: Micrococcus luteus PCI-1001
Source text: as §1

[17] = test system: Serratia marcescens; assay: MIC, serial agar dilution (nutrient agar); assay type: cell-based; settings: Serratia marcescens A20222
Source text: as §1

[18] = test system: Klebsiella pneumoniae; assay: MIC, serial agar dilution (nutrient agar); assay type: cell-based; settings: Klebsiella pneumoniae D-11
Source text: as §1

[19] = test system: Pseudomonas aeruginosa; assay: MIC, serial agar dilution (nutrient agar); assay type: cell-based; settings: Pseudomonas aeruginosa A9930
Source text: as §1

[20] = test system: Proteus vulgaris; assay: MIC, serial agar dilution (nutrient agar); assay type: cell-based; settings: Proteus vulgaris A9436
Source text: as §1

[21] = test system: Escherichia coli; assay: MIC, serial agar dilution (nutrient agar); assay type: cell-based; settings: Escherichia coli NIHJ
Source text: as §1

[22] = test system: Morganella morganii; assay: MIC, serial agar dilution (nutrient agar); assay type: cell-based; settings: Morganella morganii A9553
Source text: as §1

[23] = test system: Staphylococcus aureus; assay: MIC, serial agar dilution (nutrient agar); assay type: cell-based
Source text: as §1

[24] = test system: Proteus mirabilis; assay: MIC, serial agar dilution (nutrient agar); assay type: cell-based; settings: Proteus mirabilis A9554
Source text: as §1

[25] = test system: Staphylococcus epidermidis; assay: MIC, serial agar dilution (nutrient agar); assay type: cell-based
Source text: as §1

[26] = test system: Streptococcus faecalis; assay: MIC, serial agar dilution (nutrient agar); assay type: cell-based; settings: Streptococcus faecalis A9612
Source text: as §1

[27] = test system: Enterobacter cloacae; assay: MIC, serial agar dilution (nutrient agar); assay type: cell-based; settings: Enterobacter cloacae A9659
Source text: as §1

[28] = test system: Piricularia oryzae; assay type: cell-based; settings: Piricularia oryzae D 91; Sabouraud dextrose agar
[29] = test system: lymphoid leukemia L1210; assay: Antitumor activity against L1210 leukemia in mice; assay type: in vivo, BDF1 mice; settings: L1210 leukemia, BDF1 mice
Method: as §2

[30] = test system: Melanotic melanoma B16; assay: Antitumor activity against B16 melanoma in mice; assay type: in vivo, BDF1 mice; settings: B16 melanoma, BDF1 mice
Method: as §2

[31] = Acute toxicity, single intraperitoneal administration; settings: male ddY mice
[32] = Cryptococcus neoformans IAM 4514
[33] = Trichophyton mentagrophytes #4329
[34] = Trichophyton mentagrophytes D 155
[35] = 0.3 mg/kg/day ip, schedule 1 (once daily on days 1, 4 and 7)
[36] = 3 mg/kg/day ip, schedule 1 (once daily on days 1, 4 and 7)
[37] = treatment schedule 1 (once daily on days 1, 4 and 7)
[38] = Staphylococcus epidermidis A22152
[39] = Staphylococcus epidermidis D153
[40] = 0.031 mg/kg/day ip, schedule 2 (once daily on days 1 through 9)
[41] = 0.063 mg/kg/day ip, schedule 2 (once daily on days 1 through 9)
[42] = 0.13 mg/kg/day ip, schedule 2 (once daily on days 1 through 9)
[43] = 0.25 mg/kg/day ip, schedule 2 (once daily on days 1 through 9)
[44] = 0.5 mg/kg/day ip, schedule 2 (once daily on days 1 through 9)
[45] = 1 mg/kg/day ip, schedule 2 (once daily on days 1 through 9)

CCCCCC=CCCC=CC=CC(=O)NC(C(=O)NC1CC(O)CCNC(=O)C=CC(C)NC1=O)C(C)O (stereo not drawn) [BU-2867T B]
MIC [1]: 50 µg/mL (≈ 91.5 µM) | MIC ([2]; Cryptococcus neoformans D 49): 25 µg/mL (≈ 45.7 µM) | MIC [2, 32]: 25 µg/mL (≈ 45.7 µM) | MIC [3]: 25 µg/mL (≈ 45.7 µM) | MIC [4]: > 50 µg/mL | MIC [5]: > 50 µg/mL | MIC [6]: 0.8 µg/mL (≈ 1.46 µM) | MIC ([7]; Candida albicans A 9540): 1.6 µg/mL (≈ 2.93 µM) | MIC ([7]; Candida albicans IAM 4888): 3.1 µg/mL (≈ 5.67 µM) | MIC [8]: > 50 µg/mL | MIC [9, 33]: 12.5 µg/mL (≈ 22.9 µM) | MIC [9, 34]: 12.5 µg/mL (≈ 22.9 µM) | MIC ([10]; Aspergillus fumigatus IAM 2034): 3.1 µg/mL (≈ 5.67 µM) | MIC ([10]; Aspergillus fumigatus IAM 2530): 31 µg/mL (≈ 56.7 µM) | T/C % of MST [11, 35]: 120% | T/C % of MST ([11]; 1 mg/kg/day ip, schedule 1 (once daily on days 1, 4 and 7)): 140% | T/C % of MST [11, 36]: 165% | antitumor activity against P388 leukemia (in words) [11, 37]: showed antitumor activity | antifungal activity (in words) [12]: somewhat less active than component C | activity against some gram-positive bacteria (in words) [13]: moderate activity | solubility in chloroform, acetonitrile and ethyl acetate [14]: slightly soluble | solubility in methanol, ethanol, n-butanol and dimethyl sulfoxide [14]: readily soluble | solubility in n-hexane and water [14]: practically insoluble | MIC [15]: 50 µg/mL (≈ 91.5 µM) | MIC [16]: 50 µg/mL (≈ 91.5 µM) | MIC [17]: > 50 µg/mL | MIC [18]: > 50 µg/mL | MIC [19]: > 50 µg/mL | MIC [20]: > 50 µg/mL | MIC [21]: > 50 µg/mL | MIC [22]: > 50 µg/mL | MIC ([23]; Staphyloccus aureus Bx-1633): 50 µg/mL (≈ 91.5 µM) | MIC ([23]; Staphylococcus aureus 209P): 25 µg/mL (≈ 45.7 µM) | MIC ([23]; Staphylococcus aureus Smith): 3.1 µg/mL (≈ 5.67 µM) | MIC [24]: > 50 µg/mL | MIC [25, 38]: 50 µg/mL (≈ 91.5 µM) | MIC [25, 39]: 6.3 µg/mL (≈ 11.5 µM) | MIC [26]: > 50 µg/mL | MIC [27]: > 50 µg/mL | MIC [28]: > 50 µg/mL

CO[C@@]12[C@H](COC(N)=O)C3=C(C(=O)C(C)=C(N)C3=O)N1C[C@@H]1N[C@@H]12 [Mitomycin C, reference compound]
T/C % of MST [11, 40]: 115% | T/C % of MST [11, 41]: 130% | T/C % of MST [11, 42]: 150% | T/C % of MST [11, 43]: 170% | T/C % of MST [11, 44]: 240% | T/C % of MST [11, 45]: 290% | T/C % of MST ([29]; 0.063 mg/kg/day ip): 106% | T/C % of MST ([29]; 0.13 mg/kg/day ip): 129% | T/C % of MST ([29]; 0.25 mg/kg/day ip): 129% | T/C % of MST ([29]; 0.5 mg/kg/day ip): 141% | T/C % of MST ([29]; 1 mg/kg/day ip): 140% | T/C % of MST ([30]; 0.13 mg/kg/day ip): 131% | T/C % of MST ([30]; 0.25 mg/kg/day ip): 141% | T/C % of MST ([30]; 0.5 mg/kg/day ip): 163% | T/C % of MST ([30]; 1 mg/kg/day ip): 181% | T/C % of MST ([30]; 2 mg/kg/day ip): 63%

CCCCCCCCCC=CC=CC(=O)NC(C(=O)NC1CC(O)CCNC(=O)C=CC(C)NC1=O)C(C)O (stereo not drawn) [BU-2867T C]
MIC [1]: > 50 µg/mL | MIC ([2]; Cryptococcus neoformans D 49): 3.1 µg/mL (≈ 5.65 µM) | MIC [2, 32]: 3.1 µg/mL (≈ 5.65 µM) | MIC [3]: 50 µg/mL (≈ 91.1 µM) | MIC [4]: > 50 µg/mL | MIC [5]: > 50 µg/mL | MIC [6]: 0.2 µg/mL (≈ 0.364 µM) | MIC ([7]; Candida albicans A 9540): 0.8 µg/mL (≈ 1.46 µM) | MIC ([7]; Candida albicans IAM 4888): 1.6 µg/mL (≈ 2.92 µM) | MIC [8]: 50 µg/mL (≈ 91.1 µM) | MIC [9, 33]: 6.3 µg/mL (≈ 11.5 µM) | MIC [9, 34]: 1.6 µg/mL (≈ 2.92 µM) | MIC ([10]; Aspergillus fumigatus IAM 2034): 0.8 µg/mL (≈ 1.46 µM) | MIC ([10]; Aspergillus fumigatus IAM 2530): 0.8 µg/mL (≈ 1.46 µM) | T/C % of MST [11, 40]: 100% | T/C % of MST [11, 41]: 123% | T/C % of MST [11, 42]: 153% | T/C % of MST [11, 43]: 159% | T/C % of MST [11, 35]: 130% | T/C % of MST [11, 44]: 175% | T/C % of MST [11, 45]: 189% | T/C % of MST ([11]; 2 mg/kg/day ip, schedule 2 (once daily on days 1 through 9)): 234% | T/C % of MST [11, 36]: 155% | antitumor activity against P388 leukemia (in words) [11, 37]: showed antitumor activity | antitumor activity against P388 leukemia (in words) ([11]; treatment schedule 2 (once daily on days 1 through 9)): highly active | antifungal activity (in words) [12]: potent antifungal activity | growth inhibition of gram-positive and gram-negative bacteria (in words) ([13]; at 50 mcg/ml): did not inhibit the growth | solubility in chloroform, acetonitrile and ethyl acetate [14]: slightly soluble | solubility in methanol, ethanol, n-butanol and dimethyl sulfoxide [14]: readily soluble | solubility in n-hexane and water [14]: practically insoluble | MIC [15]: > 50 µg/mL | MIC [16]: > 50 µg/mL | MIC [17]: > 50 µg/mL | MIC [18]: > 50 µg/mL | MIC [19]: > 50 µg/mL | MIC [20]: > 50 µg/mL | MIC [21]: > 50 µg/mL | MIC [22]: > 50 µg/mL | MIC ([23]; Staphyloccus aureus Bx-1633): > 50 µg/mL | MIC ([23]; Staphylococcus aureus 209P): > 50 µg/mL | MIC ([23]; Staphylococcus aureus Smith): > 50 µg/mL | MIC [24]: > 50 µg/mL | MIC [25, 38]: > 50 µg/mL | MIC [25, 39]: > 50 µg/mL | MIC [26]: > 50 µg/mL | MIC [27]: > 50 µg/mL | MIC [28]: > 50 µg/mL | LD50 [31]: 25 mg/kg

Olivomycin A [reference compound]
T/C % of MST [11, 35]: 100%
